# “Also recorded” adds a separate entry of the source. Where a SMILES comes first, the peptide text is derived from it. [ ]: non-standard residue; d: D form. d2Nal = N[C@H](Cc1ccc2ccccc2c1)C(=O)O
# Assay: Compound gel-forming ability in water (visual inspection, tube tapping assay, tilted tube assay);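 further: peptides mixed with de-ionized water at about 22-25 °C, judged after 20 min by eye plus tube tapping (10 taps, moves counted) and 90° tilt mobility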
# Type: physicochemical
# Details: for gel formation at 6% w/w: 6% w/w in water; for gel formation at 11% w/w: 11% w/w in water; for Physical property at 11% w/w: Table 1, 11% w/w in aqueous solution, room temperature; for gel formation in aqueous solution, 11% / propensity to form gels, wild-type counterparts, 11%: 11% w/w; for propensity to form gels, wild-type counterparts, 6% / gel formation in aqueous solution, 6%: 6% w/w; for gel formation at 20% w/w: 20% w/w in water
Compound,gel formation at 6% w/w,gel formation at 11% w/w,Physical property at 11% w/w,"gel formation in aqueous solution, 11% (Table 3)","gel formation in aqueous solution, 20% (Table 3, 20% w/w)","propensity to form gels, wild-type counterparts, 6% (Table 5)","propensity to form gels, wild-type counterparts, 11% (Table 5)","gel formation in aqueous solution, 6% (Table 3)","gel formation at the selected concentration (selected concentration (i.e., at 30%, 20%, 11%, or 6% w/w))",gel formation at 3% w/w (3% w/w in water),gel formation at 20% w/w,"propensity to form gels, chimeric or mutated polypeptides, 3% (Table 5, 3% w/w)"
"CC[C@H](C)[C@H](NC(=O)[C@@H]1CCCN1C(=O)CNC(=O)[C@H](Cc1ccccc1)NC(=O)[C@H](CC(N)=O)NC(=O)[C@H](CC(N)=O)NC(=O)[C@H](CO)NC(=O)[C@H](CO)NC(=O)[C@H](Cc1c[nH]cn1)NC(=O)[C@@H](NC(=O)[C@H](CC(C)C)NC(=O)[C@H](Cc1ccccc1)NC(=O)[C@H](CC(N)=O)NC(=O)[C@H](C)NC(=O)[C@H](CC(C)C)NC(=O)[C@H](CCCNC(=N)N)NC(=O)[C@H](CCC(N)=O)NC(=O)[C@@H](NC(=O)[C@H](C)NC(=O)[C@@H]1CSSC[C@H](NC(=O)[C@@H](N)CCCCN)C(=O)N[C@@H](CC(N)=O)C(=O)N[C@@H]([C@@H](C)O)C(=O)N[C@@H](C)C(=O)N[C@@H]([C@@H](C)O)C(=O)N1)[C@@H](C)O)C(C)C)C(=O)N[C@@H](CC(C)C)C(=O)N1CCC[C@H]1C(=O)N1CCC[C@H]1C(=O)N[C@H](C(=O)N[C@@H](CC(N)=O)C(=O)N[C@H](C(=O)NCC(=O)N[C@@H](CO)C(=O)N[C@@H](CC(N)=O)C(=O)N[C@H](C(=O)N[C@@H](Cc1ccc(O)cc1)C(N)=O)[C@@H](C)O)C(C)C)[C@@H](C)O [SEQ ID NO:4, reference compound]",does not form gel,semisolid gel,SS (SS for semisolid gel),AS/IS (AS/IS for aqueous solution or insoluble),SS (SS for semisolid gel),AS/IS,SS (An ability to form semisolid gel is represented by an SS),–,–,–,–,–
"CC[C@H](C)[C@@H]1NC(=O)[C@H](Cc2ccc(O)cc2)NC(=O)[C@@H](N)CSSC[C@@H](C(=O)N2CCC[C@H]2C(=O)N[C@@H](CC(C)C)C(=O)NCC(N)=O)NC(=O)[C@H](CC(N)=O)NC(=O)[C@H](CCC(N)=O)NC1=O [SEQ ID NO:5, reference compound]",does not form liquid or semisolid gel,semisolid gel,SS (SS for semisolid gel),SS (SS for semisolid gel),–,AS/IS,SS (An ability to form semisolid gel is represented by an SS),AS/IS (AS/IS for aqueous solution or insoluble),only form aqueous solution or are insoluble,–,–,–
"C[C@H](NC(=O)[C@@H](Cc1ccc2ccccc2c1)NC(=O)[C@@H](C)N)C(=O)N[C@@H](Cc1c[nH]c2ccccc12)C(=O)N[C@H](Cc1ccccc1)C(=O)N[C@@H](CCCCN)C(N)=O [SEQ ID NO:8, (D-Ala)-(D-(β-naphthyl))-AAW-(D-Phe)-Lys-NH2, reference compound] (H-[dA][d2Nal]AW[dF]K-NH2)",semisolid gel,form self-assembling gels; also recorded: semisolid gel,SS (SS for semisolid gel),SS (SS for semisolid gel),–,SS (An ability to form semisolid gel is represented by an SS),SS (An ability to form semisolid gel is represented by an SS),SS (SS for semisolid gel),–,liquid gel,–,–
"CC[C@H](C)[C@H](N)C(=O)N[C@H]1CSSC[C@@H](C(=O)N[C@H](C(N)=O)[C@@H](C)O)NC(=O)[C@H](CCCN=C(N)N)NC(=O)[C@H](Cc2cnc[nH]2)NC(=O)[C@H](Cc2cnc[nH]2)NC(=O)CNC(=O)[C@H](Cc2c[nH]c3ccccc23)NC(=O)[C@H](CC(=O)O)NC(=O)[C@H](CCC(N)=O)NC(=O)[C@H](C(C)C)NC(=O)[C@H](C(C)C)NC1=O [SEQ ID NO:11, reference compound]",–,form self-assembling gels; also recorded: semisolid gel,SS (SS for semisolid gel),SS (SS for semisolid gel),–,–,SS (An ability to form semisolid gel is represented by an SS),–,–,–,–,–
"NC(=O)CC[C@@H]1NC(=O)[C@H](Cc2ccccc2)NC(=O)[C@H](Cc2ccc(O)cc2)NC(=O)[C@@H](N)CSSC[C@@H](C(=O)N2CCC[C@H]2C(=O)N[C@@H](CCCN=C(N)N)C(=O)NCC(N)=O)NC(=O)[C@H](CC(N)=O)NC1=O [SEQ ID NO:17, reference compound]",–,does not form gel,AS/IS,AS/IS (AS/IS for aqueous solution or insoluble),–,–,AS/IS,–,–,–,–,–
"(D-Nal)-(D-Cpa)-(D-Pal)-SY-(D-Cit)-LRP-(D-Ala)-NH2 [SEQ ID NO:27, reference compound]",–,–,AS/IS,AS/IS (AS/IS for aqueous solution or insoluble),–,–,AS/IS,–,–,–,–,–
"(D-Phe)-QWAVGHL-(4-CI)Phe-NH2 [SEQ ID NO:61, reference compound]",–,form self-assembling gels,SS (SS for semisolid gel),SS (SS for semisolid gel),–,SS (An ability to form semisolid gel is represented by an SS),SS (An ability to form semisolid gel is represented by an SS),SS (SS for semisolid gel),–,–,–,–
"(D-Tyr)QWAV(β-Ala)HF(Nle)-NH2 [SEQ ID NO:20, reference compound]",does not form gel,does not form gel,AS/IS,AS/IS (AS/IS for aqueous solution or insoluble),–,AS/IS,AS/IS,AS/IS (AS/IS for aqueous solution or insoluble),–,–,–,–
"(G1p)HWSY-(D-2Nal)-LRPG-NH2 [SEQ ID NO:15, reference compound]",–,liquid gel,–,–,–,AS/IS,–,AS/IS (AS/IS for aqueous solution or insoluble),–,–,–,–
(G1p)RPRLSHKGP(Nle)PF-K(Pal)HSY-NH2 [SEQ ID NO:262],–,liquid gel,–,–,–,–,–,–,–,–,liquid gel,AS/IS
(G1p)RPRLSHKGP(Nle)PF-miniPEG-K(Pal)VQKLSAPVDPSSPHSY-NH2 [SEQ ID NO:206],–,liquid gel,–,–,–,–,–,–,–,–,liquid gel,–
